Target: Aβ(1–42) oligomers (Homo sapiens, UniProt P05067)
Assay: Short time oligomer dissociation assay
Type: biochemical
Conditions: 2h; 50 µM, 25 µM and 12.5 µM

Sequence of Aβ(1–42) oligomers (P05067 672-713): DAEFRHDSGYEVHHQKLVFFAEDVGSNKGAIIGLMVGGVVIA

O=C(O)c1cc(O)ccc1O [2,5-dihydroxybenzoic acid]
Oligomer dissociation in short time assay: does result in disassembly

Reference: publication PMC3608202 (Biochemistry, 2013)
